Tests used:
T48 cells = assay: Fluorescent apoptotic assay (Staurosporine, MR(DEVD)2) in TrkB stably transfected T48 cells; type: cell-based, murine
Excerpt: Create and test reporter cell lines. In order to identify small molecules that mimic BDNF and activate TrkB, TrkB stably transfected murine cell lines were created. The T48 and T62 cell lines were created by transfecting basal forebrain SN56 cells, which express negligible TrkB, with a TrkB expression construct. […] To test resistance to apoptosis, SN56 cells and the T48 cell line were either untreated or treated with BDNF, and then subjected to an apoptotic assay. Briefly, the cells were treated with 0.75 μM Staurosporine for 9 hours, and 1 hour before the termination of the experiment, the cells were treated with 10 μM MR (DEVD)2. The cells were then fixed with 4% paraformaldehyde for 15 minutes, washed with phosphate buffered saline (PBS), and incubated with Hoechst 33342 for 10 minutes. Cover slides were washed with PBS, mounted, and the cells were examined using a fluorescent microscope to see which cells turned red upon caspase cleavage.
Cell-based screen. To screen a large number of chemicals, a cell-based apoptic assay was developed using a cell permeable fluorescent dye, MR (DEVD)2, which turns red upon caspase cleavage in apoptotic cells. SN56 and T48 cells were plated at 10,000 cells per well in multiple 96-well plates and exposed to 2000 biologically active compounds from the Spectrum Collection Library for 30 minutes at a concentration of 10 μM in DMSO. Following exposure to the compounds, the cells were subjected to the developed fluorescent apoptotic assay described above (method schematically shown in FIG. 2).
In the initial screen, 5 of the 66 positive compounds were flavone derivatives or similar compounds. […] To compare the apoptosis inhibitory activity, the flavone derivatives were preincubated with SN56 and T48 cells, and subsequently were subjected to the fluorescent apoptotic assay as described above. […] Additionally, the effective concentration at which 50% (EC50) of the cells are protected from apoptosis was determined for 7,8-dihydroxyflavone, Cianidanol, Pinocembrin and Diosmetin.

hippocampal neurons = assay: Oxygen-Glucose Deprivation (OGD) of hippocampal neurons; type: cell-based
Protocol: To explore whether 7,8-dihydroxyflavone exerts any protective effect on hippocampal neurons in Oxygen-Glucose Deprivation (OGD), primary preparations of neurons were treated with BDNF or various flavone derivatives for 30 minutes prior to OGD.

GST-TrkB ECD = GST-TrkB ECD (Rattus norvegicus, UniProt Q63604); assay: In vitro binding assay with immobilized GST-TrkB ECD on glutathione beads, UV-spectrometry of eluate; conditions: 500 nM, 4° C., 30 minutes, FIG. 17
Chain of GST-TrkB ECD (Q63604 32-429 limits assumed): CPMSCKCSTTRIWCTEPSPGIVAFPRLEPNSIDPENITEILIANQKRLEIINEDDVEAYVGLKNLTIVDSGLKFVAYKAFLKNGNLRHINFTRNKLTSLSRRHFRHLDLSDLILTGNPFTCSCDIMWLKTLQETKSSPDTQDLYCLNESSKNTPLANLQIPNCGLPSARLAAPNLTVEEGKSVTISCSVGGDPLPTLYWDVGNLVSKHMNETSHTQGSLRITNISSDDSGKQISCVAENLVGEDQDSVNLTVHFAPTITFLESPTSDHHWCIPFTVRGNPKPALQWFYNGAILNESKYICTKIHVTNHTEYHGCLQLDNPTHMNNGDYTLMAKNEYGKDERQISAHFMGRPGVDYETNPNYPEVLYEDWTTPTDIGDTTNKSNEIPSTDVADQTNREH
Protocol: To further explore the association of 7,8-dihydroxyflavone and the TrkB receptor, an in vitro binding assay was performed. Increasing volumes of GST-TrkB ECD and GST-TrkB ICD were bound to glutathione beads to a total of 250 uL, and 500 nM 7,8-dihydroxyflavone in 250 μl (20% DMSO/80% PBS) was incubated with the beads in the column at 4° C. for 30 minutes. After the incubation, the elute fractions were collected and the concentration of eluted 7,8-dihydroxyflavone was analyzed by UV-spectrometry at a wavelength of 410 nm.

immobility = assay: Forced swim test, 5 days intraperitoneal; type: in vivo, mice; conditions: intraperitoneally for 5 days; imipramine 20 mg/kg, amitryptyline 15 mg/kg, 7,8-dihydroxyflavone 5 mg/kg; FIG. 25
Protocol: Adult male mice (2-3 months old, n=8) were randomly submitted, without a pre-swim, to a forced swim test of 6 minutes with immobility recorded in the last 4 minutes. Mice were injected intraperitoneally for 5 days with saline, imipramine (20 mg/kg), amitryptyline (15 mg/kg), or 7,8-dihydroxyflavone (5 mg/kg). The mice were allowed to adapt to the test room for 2 days, and the mice were placed in a clear glass cylinder with a diameter of 16 cm, half-filled with clear water at 24° C. […] Data are presented as mean±SEM; *p<0.05 against vehicle, **P<0.01 against vehicle and ***P<0.0001 against vehicle, student t-test.

[1] = Toxicity after 3-week chronic treatment (organ pathology, complete blood count); type: in vivo, mice
Protocol: To explore whether 4′-dimethylamino-7,8-dihydroxyflavone and 7,8-dihydroxyflavone have any intolerable toxicity, the major organs from mice treated with both compounds at 5 mg/kg/day for 3 weeks were analyzed.

TrkB [2] = target: T1, TrkB (Rattus norvegicus, UniProt Q63604); assay: TrkB receptor dimerization in cotransfected HEK293 cells (GST pull-down); type: cell-based; set-up: expressed in transfected cells; host or cells: HEK293
Protocol: BDNF is known to bind the TrkB receptor and provoke its dimerization (Barbacid, J. Neurobiol., 25:1386-1403, 1994; Klein et al, Cell, 66:395-403, 1991). To explore whether 7,8-dihydroxyflavone triggers TrkB receptor dimerization, HEK293 cells were cotransfected with GST-TrkB and HA-TrkB or HA-TrkA. The cells were then treated with BDNF or small flavone compounds (0.5 μM) for 30 minutes. The cells were harvested, washed once in PBS, and lysed in 1 ml lysis buffer (50 mM Tris, ph 7.4, 150 mM NaCl, 1 mM EDTA, 0.5% Triton X-100, 1.5 mM Na3VO4, 50 mM NaF, 10 mM sodium pyrophosphate, 10 mM sodium β-glycerophosphate, 1 mM phenylmethylsulfonyl fluoride (PMSF), 5 mg/ml aprotinin, 1 mg/ml leupeptin, 1 mg/ml pepstatin A) and centrifuged for 10 minutes at 14,000×g at 4° C. The supernatant was transferred to a fresh tube and transfected TrkB receptor was separated from the supernatant with glutathione beads, and the coprecipitated proteins were resolved on SDS-PAGE.
Target sequence in this assay (Q63604 32-821): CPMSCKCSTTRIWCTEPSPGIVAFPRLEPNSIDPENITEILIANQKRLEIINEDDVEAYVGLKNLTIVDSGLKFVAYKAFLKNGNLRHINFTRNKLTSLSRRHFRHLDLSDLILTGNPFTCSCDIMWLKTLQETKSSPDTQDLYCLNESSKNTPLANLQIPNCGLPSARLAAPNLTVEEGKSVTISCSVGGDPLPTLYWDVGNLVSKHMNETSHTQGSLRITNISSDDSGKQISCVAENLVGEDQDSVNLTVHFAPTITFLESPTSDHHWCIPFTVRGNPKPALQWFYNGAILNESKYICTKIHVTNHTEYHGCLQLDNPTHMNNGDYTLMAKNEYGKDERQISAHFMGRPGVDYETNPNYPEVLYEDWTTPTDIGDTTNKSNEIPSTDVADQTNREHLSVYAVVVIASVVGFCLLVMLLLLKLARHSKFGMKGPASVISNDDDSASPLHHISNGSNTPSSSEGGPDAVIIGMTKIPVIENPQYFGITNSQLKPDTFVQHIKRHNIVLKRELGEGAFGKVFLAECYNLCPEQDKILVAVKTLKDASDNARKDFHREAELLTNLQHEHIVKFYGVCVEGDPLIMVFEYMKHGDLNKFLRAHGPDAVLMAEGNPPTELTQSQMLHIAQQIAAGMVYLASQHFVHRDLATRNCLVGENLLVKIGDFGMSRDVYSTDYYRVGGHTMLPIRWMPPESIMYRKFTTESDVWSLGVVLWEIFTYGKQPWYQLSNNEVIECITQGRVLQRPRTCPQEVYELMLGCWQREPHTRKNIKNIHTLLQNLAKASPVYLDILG
Target sequence in this assay (Q63604 32-821): as above

TrkB [3] = target: T1, TrkB; assay: TrkB activation in primary cortical neurons (p-TrkB Y817 immunoblotting); type: cell-based; set-up: endogenous in cells; host or cells: primary cortical neurons; conditions: FIG. 27 right
Protocol: Primary cultured rat cortical neurons were prepared as follows. E17 rat pups were decapitated and cortex was extirpated, cross chopped, and suspended by pipetting for separation in 5% fetal calf serum (FCS), 5% horse serum (HS) DMEM. The cell suspension was then centrifuged at 250×g for 5 minutes. This operation was repeated again. Cells were seeded into polyethyleneimine-coated 10 cm^2 dishes and 12-well plates including coated-coverslips and incubated at 37° C. in 5% CO2/95% air. After 3 hours, the culture medium was changed to Neurobasal containing B-27 supplement (Invitrogen; Carlsbad, Calif.) and incubated for 4 days. For maintenance, half of the culture medium was changed to fresh Neurobasal/B27 every 4 days. After 1 week, the dished cultured neurons were ready for use.
To compare the TrkB activation by the synthetic compounds of Examples 9 and 10 (see FIG. 26), primary cortical cultures were prepared. The cortical neurons were treated with 500 nM of various compounds for 30 min and collected the cell lysates. […] Replacing the H-bond acceptor O atom with hydrogen bond donor NH reduced its stimulatory effect. […] In comparison, 7,8-DHF provoked TrkB activation with the minimal concentration of 100 nM (FIG. 27, right panels).
Target sequence in this assay (Q63604 32-821): as above

O=c1cc(-c2ccccc2)oc2c(O)c(O)ccc12 [7,8-dihydroxyflavone]
EC50 (T48 cells; Mus musculus, read-out: effective concentration at which 50% (EC50) of the cells are protected from apoptosis): 35 nM | suppression of apoptosis in T48 cell line (T48 cells; Staurosporine-induced apoptosis, FIG. 1B and FIG. 4): strongly suppressed apoptosis | protective effect in OGD (hippocampal neurons; 30 minutes prior to OGD, apoptotic analysis in 3 hours, FIG. 7 left): most potent protective effects among the compounds | titration assay of protection in OGD (hippocampal neurons; FIG. 7 right): protects neurons in a dose-dependent manner | concentration of eluted compound as GST-TrkB ECD volumes increased (GST-TrkB ECD): decreased | swimming immobility (immobility): reduced the immobility | toxicity to the mice ([1]; 5 mg/kg/day dose for 3-week chronic treatment): neither compound was toxic | complete blood count (CBC) versus control saline-treated mice ([1]; mouse, in vivo): no significant difference | dimerization of TrkB with TrkA receptor (TrkB [2]; GST-TrkB and HA-TrkA cotransfected): failed to dimerize with TrkA receptor | TrkB dimerization (TrkB [2]; GST-TrkB and HA-TrkB, 0.5 μM, 30 minutes, FIG. 14): provoked TrkB dimerization to a similar manner as BDNF | minimal concentration triggering TrkB activation (titration assay) (TrkB [3]): 100 nM
